# Legend:
# [1] = In vivo mouse PK, oral administration (FIG. 1); set-up: species or system male C57Bl mice; conditions: orally administered, 60 μmol/kg in 1% Methocel A4C vehicle
# Source text: Various embodiments of the invention will now be described by way of illustration only with reference to the following Examples and FIG. 1 which depicts plasma concentration against time for male C57Bl mice orally administered a compound of the invention or a compound of the prior art.
# [2] = reference markers for the permeability assay; cited from earlier work
# [3] = Metabolic stability in whole blood; assay type: in vitro ADME; conditions: worked out from whole blood CLint
# Protocol: Compounds of the invention and the indicated comparative examples were tested for metabolic stability in a cytosol assay in which the compounds were incubated with commercially available human hepatic cytosol fractions and the disappearance of the compound monitored by HPLC or LC/MS. Pooled human liver cytosol fractions are less likely to represent outlier individuals than blood from a single individual and can be stored frozen, unlike whole blood. The cytosol assay thus provides a consistent assay testbed as a guide to the stability of a compound in the in vivo environment, such as when exposed to whole blood.
# In short, test compounds (2 μM) are incubated in pooled human liver cytosol (Xenotech LLC Lenexa US, 1 mg/mL protein in 0.1 M phosphate buffer, pH 7.4) at 37° centigrade over a one hour period. The incubations are initiated by the addition of 1 mM NADPH co-factor. Timed sub-samples were taken at 0, 20, 40 and 60 minutes and “crash precipitated” by the addition of 3 volumes of ice-cold acetonitrile. The samples were centrifuged at reduced temperature and the supernatants were separated and analyzed by LC-MS-MS.
# Alternatively, an analogous stability assay is carried out in human or monkey whole blood and/or commercially available liver microsomes, such as XEN 025.
Structure (SMILES),% absorption in man [2] [%],further results
"C#C[C@@H]1CN(C(=O)[C@H](CC(C)C)NC(=O)c2ccc(-c3nc(N4CCN(C)CC4)sc3F)cc2)[C@@H]2C(=O)CO[C@H]12 [Example 2, N-[1-6-(ethynyl-3-oxo-hexahydro-furo[3,2-b]pyrrole-4-carbonyl)-3-methyl-butyl]-4-[5-fluoro-2-(4-methyl-piperazin-1-yl)thiazol-4-yl]-benzamide]",,in vivo exposure (Cmax or AUC) compared with the prior art compound [1]: very much greater
N[C@@H](Cc1ccccc1)C(=O)O [L-Phenylalanine],100,
OC[C@@H](O)[C@@H](O)[C@H](O)[C@H](O)CO [Mannitol],16,
CN(Cc1cnc2nc(N)nc(N)c2n1)c1ccc(C(=O)N[C@@H](CCC(=O)O)C(=O)O)cc1 [Methotrexate],20,
CC(C)C[C@H](NC(=O)c1ccc(-c2csc(N3CCN(C)CC3)n2)cc1)C(=O)N1C[C@@H](C)[C@H]2OCC(=O)[C@H]21 [comparative example],,estimated / calculated whole blood half life [3]: little over an hour

# Reference: patent US9200006B2, “Protease inhibitors” (MEDIVIR AB, priority 2008, dated 2015)
